# Source: patent US9061003B2, “Therapeutic or preventive agent for diabetes” (NITTA GELATIN INC., priority 2011, dated 2015)
# Test system: ob/ob mice
# Assay: Evaluation of sugar tolerance by glucose loading test
# Format: in vivo
# Conditions: 0.85 g/kg orally 30 minutes before oral glucose 2 g/kg
# Description: Six-weeks old male ob/ob mice (Japan SLC) were allowed to acclimate by feeding with normal diet (MF, Oriental Yeast) for 7 days, and subjected to the experiment. After fasting the same mice overnight (16 hours), each collagen peptide (0.85 g/kg) or casein (0.85 g/kg, manufactured by DMV, Netherlands) was orally administered, and glucose (2 g/kg) was orally administered after 30 minutes, and the effect on the sugar tolerance was examined by a glucose loading test (2 g/kg). After 0, 15, 30, 60 and 120 minutes, the blood sugar level was measured by using a blood glucose measuring apparatus (Glutest ace R, SANWA KAGAKU KENKYUSHO CO., LTD.), and AUC0-120 min was calculated, and evaluated.
substance,measurement,value
Casein,AUC0-120 min × 1000 (blood sugar level),40.0 ± 2.0 min mg/dL
